Reference: patent US9963703B2, “Compositions and methods for treating pancreatic cancer” (Autotelic LLC, priority 2016, dated 2018)
In the oligonucleotide strings, read from the 5' end, every base follows the letter of its sugar. An asterisk marks phosphorothioate; unmarked linkages are phosphodiester. Other units and linkages are bracketed, terminal groups are in braces. A string of capitals states the bases alone. d = 2'-deoxy (DNA)

System: Patients With Advanced Tumors Known to Overproduce TGFβ2
Assay: Phase I/II dose escalation study P-001, safety (MTD, DLT, adverse events)
Assay type: in vivo, human
Description: Over-expression of transforming growth factor-beta 2 (TGF-β2) is associated with poor prognosis and plays a key role for malignant progression of various tumors by inducing proliferation, metastasis, angiogenesis and immunosuppression. P-001 trial of trabedersen-Safety and Tolerability of AP 12009 (trabedersen), Administered I.V. in Patients With Advanced Tumors Known to Overproduce TGFβ2, was evaluated to determine if treatment with trabedersen primed the tumors to subsequent chemotherapy.
In the instant study, the primary objective was to determine the Maximum Tolerated Dose (MTD) and the Dose Limited Toxicity (DLT) of two cycles of trabedersen administered intravenously (i.v.) for either 7 days every other week (i.e. 7 days on/7 days off) or for 4 days every other week (4 days on/10 days off). The secondary objective included assessment of antitumor activity of trabedersen administered intravenously for either 7 days every other week (i.e. 7 days on/7 days off) or for 4 days every other week (4 days on/10 days off).
The escalation scheme of this study aimed to determinate the MTD of two cycles of trabedersen (so called ‘core study period’) administered as a continuous i.v. infusion for 7 days every other week (7-days-on/7-days-off) or for 4 days every other week (4-days-on/10-days-off).
In general, it was planned to enroll a cohort of at least 3 evaluable patients per treatment group. For each cohort, the safety data obtained until end of the core study period (period for DLT-assessment, Cycle 1 and Cycle 2) were assessed in an interim analysis and evaluated by a Data and Safety Monitoring Board (DSMB). […] If 2 of these 3 patients experienced a DLT, the number of evaluable patients for the subsequent treatment group was increased to 6 for further evaluation of toxicity. Patients who were withdrawn from the study due to adverse events (AEs) attributed to DLT by the treating clinician, were not replaced but were used to determine the MTD and to evaluate the safety of the study drug. If patients were withdrawn due to other reasons, they were replaced until the treatment group was complete.
The MTD was determined according to the following procedure: If 2 out of 3 patients of 1 cohort experienced a DLT, 3 more patients were enrolled in the same treatment group. If at least 1 of these additional 3 patients also met the toxicity criteria for a DLT, the MTD for two cycles was determined; otherwise the dose escalation was continued upon agreement with the DSMB. MTD for two cycles was then defined as the dose at which no more than 2 out of 3, or 2 out of 6 patients of the same treatment group experienced a DLT. This procedure was followed until the MTD was reached.
The safety population comprised of 61 patients, representing all patients for whom at least once a trabedersen infusion was started. According to the protocol, the MTD was determined according to the following procedure: if […] out of 3 patients of one cohort experience dose-limiting toxicity, 3 more patients were enrolled in the same treatment group. If at least 1 more patient of this second cohort met the toxicity criteria, MTD for two cycles has been determined (otherwise escalation was continued). MTD for two cycles was then defined as the dose at which no more than 2 out of 3 or 2 out of 6 patients of the same treatment group experienced DLT. […] In the case that 2 patients of the first cohort experienced DLTs that clearly indicated attainment of the MTD, the second cohort could also be omitted. The described procedure was pursued until the MTD is reached.

[1] = 240 mg/m^2/day, 7-days-on and 7-days-off schedule
[2] = 4-days-on and 10-days-off schedule
[3] = 4-days-on, 10-days off schedule (N = 44)
[4] = 7-days-on and 7-days-off schedule
[5] = 7-days-on, 7-days off schedule (N = 17)

Substance: trabedersen: TGF-beta2 specific phosphorothioate antisense oligodeoxynucleotide with the sequence 5′-CGGCATGTCTATTTTGTA-3′ (SEQ ID No: 1) (antisense dC*dG*dG*dC*dA*dT*dG*dT*dC*dT*dA*dT*dT*dT*dT*dG*dT*dA)
- dose-limiting toxicity observed (140 mg/m^2/day, 4-days-on and 10-days-off schedule, one patient): Grade 3 upper gastrointestinal hemorrhage
- DLT: cases of Grade 3 maculopapular rash [1]: 1
- DLT: cases of Grade 3 thrombocytopenia [1]: 2
- number of patients who experienced a DLT [1]: 3
- patients with TEAEs that led to treatment discontinuation, % [2]: 15.9%
- patients with TEAEs that led to treatment discontinuation, number [2]: 7
- MTD (4-days-on and 10-days-off schedule, no MTD established, highest dose tested): > 330 mg/m^2/day
- Any SAE: % of patients with SAE [3]: 40.9%
- Any SAE: No. of SAEs [3]: 28
- Any SAE: No. of patients with SAE [3]: 18
- Ascites: No. of patients with SAE [3]: 0
- Cancer Pain: % of patients with SAE [3]: 4.5%
- Cancer Pain: No. of SAEs [3]: 2
- Cancer Pain: No. of patients with SAE [3]: 2
- Catheter related Infection: % of patients with SAE [3]: 2.3%
- Catheter related Infection: No. of SAEs [3]: 1
- Catheter related Infection: No. of patients with SAE [3]: 1
- Cholangitis: % of patients with SAE [3]: 6.8%
- Cholangitis: No. of SAEs [3]: 3
- Cholangitis: No. of patients with SAE [3]: 3
- Cholestasis: % of patients with SAE [3]: 2.3%
- Cholestasis: No. of SAEs [3]: 1
- Cholestasis: No. of patients with SAE [3]: 1
- GI hemorrhage: % of patients with SAE [3]: 2.3%
- GI hemorrhage: No. of SAEs [3]: 2
- GI hemorrhage: No. of patients with SAE [3]: 1
- Pneumonia: No. of patients with SAE [3]: 0
- Upper GI hemorrhage: % of patients with SAE [3]: 2.3%
- Upper GI hemorrhage: No. of SAEs [3]: 1
- Upper GI hemorrhage: No. of patients with SAE [3]: 1
- MTD [4]: 160 mg/m^2/day
- patients with TEAEs that led to treatment discontinuation, % [4]: 41.2%
- patients with TEAEs that led to treatment discontinuation, number [4]: 7
- Any SAE: % of patients with SAE [5]: 70.6%
- Any SAE: No. of SAEs [5]: 28
- Any SAE: No. of patients with SAE [5]: 12
- Ascites: % of patients with SAE [5]: 17.6%
- Ascites: No. of SAEs [5]: 3
- Ascites: No. of patients with SAE [5]: 3
- Cancer Pain: No. of patients with SAE [5]: 0
- Catheter related Infection: % of patients with SAE [5]: 11.8%
- Catheter related Infection: No. of SAEs [5]: 2
- Catheter related Infection: No. of patients with SAE [5]: 2
- Cholangitis: % of patients with SAE [5]: 5.9%
- Cholangitis: No. of SAEs [5]: 1
- Cholangitis: No. of patients with SAE [5]: 1
- Cholestasis: % of patients with SAE [5]: 5.9%
- Cholestasis: No. of SAEs [5]: 1
- Cholestasis: No. of patients with SAE [5]: 1
- GI hemorrhage: % of patients with SAE [5]: 11.8%
- GI hemorrhage: No. of SAEs [5]: 3
- GI hemorrhage: No. of patients with SAE [5]: 2
- Pneumonia: % of patients with SAE [5]: 17.6%
- Pneumonia: No. of SAEs [5]: 3
- Pneumonia: No. of patients with SAE [5]: 3
- Upper GI hemorrhage: % of patients with SAE [5]: 5.9%
- Upper GI hemorrhage: No. of SAEs [5]: 1
- Upper GI hemorrhage: No. of patients with SAE [5]: 1
- MTD (4 days on and days off regimen (N=27), not reached at highest dose): > 330 mg/m^2/d
- MTD (7 days on and 7 days off regimen (N=11)): 160 mg/m^2/d
- Any SAE: % of patients with SAE (Total (N = 61)): 49.2%
- Any SAE: No. of SAEs (Total (N = 61)): 56
- Any SAE: No. of patients with SAE (Total (N = 61)): 30
- Ascites: % of patients with SAE (Total (N = 61)): 4.9%
- Ascites: No. of SAEs (Total (N = 61)): 3
- Ascites: No. of patients with SAE (Total (N = 61)): 3
- Cancer Pain: % of patients with SAE (Total (N = 61)): 3.3%
- Cancer Pain: No. of SAEs (Total (N = 61)): 2
- Cancer Pain: No. of patients with SAE (Total (N = 61)): 2
- Catheter related Infection: % of patients with SAE (Total (N = 61)): 4.9%
- Catheter related Infection: No. of SAEs (Total (N = 61)): 3
- Catheter related Infection: No. of patients with SAE (Total (N = 61)): 3
- Cholangitis: % of patients with SAE (Total (N = 61)): 6.6%
- Cholangitis: No. of SAEs (Total (N = 61)): 4
- Cholangitis: No. of patients with SAE (Total (N = 61)): 4
- Cholestasis: % of patients with SAE (Total (N = 61)): 3.3%
- Cholestasis: No. of SAEs (Total (N = 61)): 2
- Cholestasis: No. of patients with SAE (Total (N = 61)): 2
- GI hemorrhage: % of patients with SAE (Total (N = 61)): 4.9%
- GI hemorrhage: No. of SAEs (Total (N = 61)): 3
- GI hemorrhage: No. of patients with SAE (Total (N = 61)): 3
- Pneumonia: % of patients with SAE (Total (N = 61)): 4.9%
- Pneumonia: No. of SAEs (Total (N = 61)): 3
- Pneumonia: No. of patients with SAE (Total (N = 61)): 3
- Upper GI hemorrhage: % of patients with SAE (Total (N = 61)): 3.3%
- Upper GI hemorrhage: No. of SAEs (Total (N = 61)): 2
- Upper GI hemorrhage: No. of patients with SAE (Total (N = 61)): 2
- number of patients for whom a DLT was proclaimed (all cohorts, 2 pancreatic carcinoma, 2 colorectal cancer): 4
- patients with TEAEs that led to treatment discontinuation, % (all patients): 23.0%
- patients with TEAEs that led to treatment discontinuation, number (all patients): 14
- total number of TEAEs that led to treatment discontinuation (all patients): 23
- patients with TEAEs that led to treatment discontinuation, % (colorectal cancer): 40.0%
- patients with TEAEs that led to treatment discontinuation, number (colorectal cancer): 2
- daily dose of MTD (initial 7-days-on and 7-days-off schedule): approx. 4 mg/kg/day
- patients with TEAEs that led to treatment discontinuation, % (melanoma): 15.8%
- patients with TEAEs that led to treatment discontinuation, number (melanoma): 3
- patients with TEAEs that led to treatment discontinuation, % (pancreatic cancer): 24.3%
- patients with TEAEs that led to treatment discontinuation, number (pancreatic cancer): 9
